Drawing on ChEMBL document CHEMBL1134415, “Potent and selective ET-A antagonists. 2. Discovery and evaluation of potent and water soluble N-(6-(2-(aryloxy)ethoxy)-4-pyrimidinyl)sulfonamide derivatives” (J Med Chem, 2001), this text covers IC50 and Ki for eight compounds.

Where only a bound is given, the exact number is not on record here.

Assay [1] is described as follows: Ability to inhibit specific binding of [125I]- -ET-1 to rat A 10 cells which express endothelin A receptor.
The target in assay [2] is T1, Endothelin-1 receptor (Sus scrofa, UniProt Q29010).
T1 sequence (Q29010 whole entry): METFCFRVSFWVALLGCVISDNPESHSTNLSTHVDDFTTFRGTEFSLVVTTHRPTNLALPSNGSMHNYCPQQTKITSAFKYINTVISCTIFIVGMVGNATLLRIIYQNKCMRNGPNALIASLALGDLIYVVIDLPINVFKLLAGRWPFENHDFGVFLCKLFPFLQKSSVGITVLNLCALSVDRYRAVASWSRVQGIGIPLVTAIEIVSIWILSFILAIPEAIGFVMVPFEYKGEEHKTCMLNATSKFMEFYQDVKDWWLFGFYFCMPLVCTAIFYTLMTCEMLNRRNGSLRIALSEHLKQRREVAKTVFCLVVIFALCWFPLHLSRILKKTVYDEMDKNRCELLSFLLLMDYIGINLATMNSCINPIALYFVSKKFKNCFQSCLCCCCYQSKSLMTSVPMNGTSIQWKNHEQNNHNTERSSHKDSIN
Description: Ability to inhibit [125I]ET1 binding to endothelin A receptor in porcine aortic membrane. Type of assay: cell membranes.

The target of assay [3] is T2, Endothelin-1 receptor (Homo sapiens, UniProt P25101).
T2 sequence (P25101 whole entry): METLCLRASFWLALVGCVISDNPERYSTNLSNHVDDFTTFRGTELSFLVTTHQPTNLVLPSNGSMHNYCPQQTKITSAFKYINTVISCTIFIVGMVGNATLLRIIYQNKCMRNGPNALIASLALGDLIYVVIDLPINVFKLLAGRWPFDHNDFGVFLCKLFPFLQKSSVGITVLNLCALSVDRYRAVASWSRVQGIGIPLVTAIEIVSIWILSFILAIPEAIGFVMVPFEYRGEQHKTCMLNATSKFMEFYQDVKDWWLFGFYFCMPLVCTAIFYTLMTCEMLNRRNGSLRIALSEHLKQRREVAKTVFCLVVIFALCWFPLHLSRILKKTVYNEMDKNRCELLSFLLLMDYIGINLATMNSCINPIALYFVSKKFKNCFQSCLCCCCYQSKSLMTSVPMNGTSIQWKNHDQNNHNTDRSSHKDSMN
Description: Ability to inhibit [125I]ET1 binding to human cloned endothelin A receptor expressed on CHO cells. The class given is cell-based.

Assay [4] concerns the target T3, Endothelin receptor type B (Homo sapiens, UniProt P24530).
T3 sequence (P24530 whole entry): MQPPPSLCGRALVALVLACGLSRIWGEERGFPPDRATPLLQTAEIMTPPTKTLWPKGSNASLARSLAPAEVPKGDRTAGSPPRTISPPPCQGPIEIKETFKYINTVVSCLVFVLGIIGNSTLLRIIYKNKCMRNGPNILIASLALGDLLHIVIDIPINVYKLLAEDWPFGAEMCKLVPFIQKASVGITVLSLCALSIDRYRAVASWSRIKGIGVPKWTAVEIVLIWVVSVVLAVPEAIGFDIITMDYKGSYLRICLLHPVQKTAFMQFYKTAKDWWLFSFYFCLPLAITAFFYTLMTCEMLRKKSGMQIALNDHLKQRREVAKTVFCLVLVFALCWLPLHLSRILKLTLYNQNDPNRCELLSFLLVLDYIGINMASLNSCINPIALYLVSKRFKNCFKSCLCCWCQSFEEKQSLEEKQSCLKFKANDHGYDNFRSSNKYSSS
Briefly: Ability to inhibit [125I]-ET-1 binding to human cloned ETB receptors expressed on CHO cells. The class given is cell-based.

The target in assay [5] is T3, Endothelin receptor type B. Description: Ability to inhibit specific binding of [125I]- -ET-1 to human GH cells which express endothelin B receptor. The class given is cell-based.

`Cc1ccc(-c2c(NS(=O)(=O)c3ccc(C(C)(C)C)cc3)ncnc2OCCOc2ncc(Br)cn2)cc1`: the figures for the IC50 (in assay [1]; at Endothelin-1 receptor [2]) were 0.039 nM and under 0.001 nM, respectively. For the same compound, the inhibition constant Ki (in general, the dissociation constant of the complex between target and ligand, obtained from inhibition or displacement) turned out to be 0.0042 nM at Endothelin-1 receptor [3] and 130 nM in assay [4].

Turning to `CSc1cnc(OCCOc2ncnc(NS(=O)(=O)c3ccc(C(C)(C)C)cc3)c2-c2ccc(C)cc2)nc1`, the IC50 (commonly the midpoint of a concentration-inhibition curve) at Endothelin-1 receptor [2] is under 0.001 nM.

On Endothelin-1 receptor [2], `CSc1cnc(OCCOc2ncnc(NS(=O)(=O)c3ccc(C(C)(C)C)cc3)c2-c2ccc(C(=O)O)cc2)nc1` displayed an IC50 of over 10 nM. On the same count and under the same terms, the figure for `Cc1ccc(-c2c(NS(=O)(=O)c3ccc(C(C)(C)C)cc3)ncnc2OCCOc2ncc(C(=O)O)cn2)cc1` is over 10 nM; for `Cc1ccc(-c2c(NS(=O)(=O)c3ccc(C(C)(C)C(=O)O)cc3)ncnc2OCCOc2ncc(Br)cn2)cc1` it is 1.4 nM. In assay [5], `Cc1ccc(-c2c(NS(=O)(=O)c3ccc(C(C)(C)C)cc3)ncnc2OCCOc2ncc(CO)cn2)cc1` gave a half-inhibitory concentration (IC50) of 31 nM. `CSc1cnc(OCCOc2ncnc(NS(=O)(=O)c3ccc(C(C)(C)C)cc3)c2-c2ccc(CO)cc2)nc1`: the 50% inhibitory concentration (IC50) at Endothelin-1 receptor [2] worked out at 0.04 nM.

`CC(C)(C)c1ccc(S(=O)(=O)Nc2ncnc(OCCOc3ncc(Br)cn3)c2-c2ccc(CO)cc2)cc1` registered an IC50 at Endothelin-1 receptor [2] of 0.04 nM. That is a picomolar value.
